# Results taken from patent publication US12304932B2, “PACAP stabilized peptide” (SENJU PHARMACEUTICAL CO., LTD., priority 2017, dated 2025).
# Square brackets hold non-standard residues; d marks the D form. Peptide text beside a SMILES is read from it. * marks the point of attachment. Ala(1H-tetrazol-5-yl) = N[C@@H](Cc1nnn[nH]1)C(=O)O; Nle = CCCC[C@H](N)C(=O)O; Ms = CS(=O)(=O)*
# Experiments:
# [1] = Peptide stability test 1: aqueous solution, phosphate buffer pH 7.0, stored at 40° C., HPLC conditions 1; type: physicochemical; conditions: phosphate buffer pH 7.0, 40° C.; for survival rate after correction for water, 40° C., 1-month storage / survival rate after correction for water, 40° C., 2-month storage: 100 μM peptide; for survival rate after correction for water, 40° C., 2-month storage: 2 months
# Procedure: Peptides 1 and 3 to 5 synthesized in Example 2 were weighed and dissolved in phosphate buffer (pH 7.0) to prepare 1.0 mM peptide solutions. The 1.0 mM peptide solutions were then diluted with phosphate buffer to 100 μM. After filtering with. Chromatdisk (product of Merck Millipore, Millex-GV, 0.22 μm), each filtrate was dispensed into an LC vial (Waters Deactivated Qsert Vial). The prepared peptide solutions were incubated for one month or 2 months in a 40° C. thermostatic bath to obtain stored samples. A simultaneously prepared sample among the peptide solutions that was not stored was used as a standard sample (initial sample). The standard sample and the stored samples were stored at −30° C. until sample analysis.
# Using the total weight of the aqueous peptide solution and storage vessel as the specimen weight, measurements were recorded as the specimen weights before storage and the specimen weights after storage under different storage conditions. The empty weight of the storage vessel was also measured, and the moisture permeability was determined by the following formula.
# After stirring the standard sample and the stored samples on a vortex mixer, each peptide solution was transferred to an HPLC vial (Deactivated Qsert vial by Waters Co.). Reverse-phase HPLC (HPLC system: Prominence by Shimadzu Corp.) was conducted under the conditions shown in Table 3 below for analysis of the_peptide solutions, and chromatograms were obtained.
# Column: XSelect CSH C18 by Waters Co., 5 μm, 4.6×250 mm
# Guard column: XSelect CSH C18 by Waters. Co., 5 μm, 4.6×20 mm Guard Cartridge
# Detection wavelength: 220 nm
# Mobile phase A: 0.1% formic acid in water
# Mobile phase B: 0.1% formic acid in acetonitrile
# Measuring time: 30 minutes
# Measuring sample injection rate: 50 μL
# Column temperature: 40° C.
# Mobile phase delivery: The mixing ratio of mobile phase A and mobile phase B was varied as shown in Table 3 for linear concentration gradient control.
# The peak area value for the peptide in the chromatogram was calculated, and the survival rate (survival rate before correction for water) was calculated using formula (2). The survival rate after correction for water was also calculated from the survival rate before correction for water using formula (3), taking into account the moisture permeability of the container.
# [2] = Peptide stability tests 2 and 3: Tris buffer pH 7.0, stored at 60° C., HPLC conditions 2; type: physicochemical; conditions: Tris buffer pH 7.0, 60° C.
# Outline: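 Survival rate, corrected for water, was quantified by reversed-phase C18 HPLC (220 nm; formic acid water/acetonitrile gradient; 40° C. column) against an initial unstored standard. Samples were 100 μM peptide in pH 7.0 Tris stored 1–2 weeks at 60° C.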
"stability in aqueous solution, in words [2]",SMILES,"survival rate after correction for water, 40° C., 1-month storage [1] [%]","survival rate after correction for water, 40° C., 2-month storage [1] [%]","stability in aqueous solution, in words [1]","survival rate after correction for water, 60° C., 1-week storage ([2]; 100 μM peptide) [%]","survival rate after correction for water, 60° C., 2-week storage ([2]; 100 μM peptide, 2 weeks) [%]","survival rate after correction for water, 60° C., 2-week storage (Table 7-2) ([2]; 100 μM peptide, 2 weeks) [%]"
–,CC[C@H](C)[C@H](NC(=O)CNC(=O)[C@H](CC(=O)O)NC(=O)[C@H](CO)NC(=O)[C@@H](N)Cc1c[nH]cn1)C(=O)N[C@@H](Cc1ccccc1)C(=O)N[C@H](C(=O)N[C@@H](Cc1nnn[nH]1)C(=O)N[C@@H](CO)C(=O)N[C@@H](Cc1ccc(O)cc1)C(=O)N[C@@H](CO)C(=O)N[C@@H](CCCNC(=N)N)C(=O)N[C@@H](Cc1ccc(O)cc1)C(=O)N[C@@H](CCCNC(=N)N)C(=O)N[C@@H](CCCCN)C(=O)N[C@@H](CCC(N)=O)C(=O)N[C@@H](CCSC)C(=O)N[C@@H](C)C(=O)N[C@H](C(=O)N[C@@H](CCCCN)C(=O)N[C@@H](CCCCN)C(=O)N[C@@H](Cc1ccc(O)cc1)C(=O)N[C@@H](CC(C)C)C(=O)N[C@@H](C)C(=O)N[C@@H](C)C(=O)N[C@H](C(=O)N[C@@H](CC(C)C)C(N)=O)C(C)C)C(C)C)[C@@H](C)O [Peptide 4] (H-HSDGIFT[Ala(1H-tetrazol-5-yl)]SYSRYRKQMAVKKYLAAVL-NH2),42.8,28.2,increased stability compared to peptide 1,–,–,–
–,"CC[C@H](C)[C@H](NC(=O)CNC(=O)[C@H](CC(=O)O)NC(=O)[C@H](CO)NC(=O)[C@@H](N)Cc1c[nH]cn1)C(=O)N[C@@H](Cc1ccccc1)C(=O)N[C@H](C(=O)N[C@@H](CC(=O)O)C(=O)N[C@@H](CO)C(=O)N[C@@H](Cc1ccc(O)cc1)C(=O)N[C@@H](CO)C(=O)N[C@@H](CCCNC(=N)N)C(=O)N[C@@H](Cc1ccc(O)cc1)C(=O)N[C@@H](CCCNC(=N)N)C(=O)N[C@@H](CCCCN)C(=O)N[C@@H](CCC(N)=O)C(=O)N[C@@H](CCSC)C(=O)N[C@@H](C)C(=O)N[C@H](C(=O)N[C@@H](CCCCN)C(=O)N[C@@H](CCCCN)C(=O)N[C@@H](Cc1ccc(O)cc1)C(=O)N[C@@H](CC(C)C)C(=O)N[C@@H](C)C(=O)N[C@@H](C)C(=O)N[C@H](C(=O)N[C@@H](CC(C)C)C(N)=O)C(C)C)C(C)C)[C@@H](C)O [Peptide 1, reference compound]",37.4,21.3,–,26.6,15.8,–
–,CC[C@H](C)[C@H](NC(=O)CNC(=O)[C@H](Cc1nnn[nH]1)NC(=O)[C@H](CO)NC(=O)[C@@H](N)Cc1c[nH]cn1)C(=O)N[C@@H](Cc1ccccc1)C(=O)N[C@H](C(=O)N[C@@H](Cc1nnn[nH]1)C(=O)N[C@@H](CO)C(=O)N[C@@H](Cc1ccc(O)cc1)C(=O)N[C@@H](CO)C(=O)N[C@@H](CCCNC(=N)N)C(=O)N[C@@H](Cc1ccc(O)cc1)C(=O)N[C@@H](CCCNC(=N)N)C(=O)N[C@@H](CCCCN)C(=O)N[C@@H](CCC(N)=O)C(=O)N[C@@H](CCSC)C(=O)N[C@@H](C)C(=O)N[C@H](C(=O)N[C@@H](CCCCN)C(=O)N[C@@H](CCCCN)C(=O)N[C@@H](Cc1ccc(O)cc1)C(=O)N[C@@H](CC(C)C)C(=O)N[C@@H](C)C(=O)N[C@@H](C)C(=O)N[C@H](C(=O)N[C@@H](CC(C)C)C(N)=O)C(C)C)C(C)C)[C@@H](C)O [Peptide 5] (H-HS[Ala(1H-tetrazol-5-yl)]GIFT[Ala(1H-tetrazol-5-yl)]SYSRYRKQMAVKKYLAAVL-NH2),94.7,85.6,further increased stability over peptide 3 and peptide 4,–,–,–
–,CC[C@H](C)[C@H](NC(=O)CNC(=O)[C@H](Cc1nnn[nH]1)NC(=O)[C@H](CO)NC(=O)[C@@H](N)Cc1c[nH]cn1)C(=O)N[C@@H](Cc1ccccc1)C(=O)N[C@H](C(=O)N[C@@H](CC(=O)O)C(=O)N[C@@H](CO)C(=O)N[C@@H](Cc1ccc(O)cc1)C(=O)N[C@@H](CO)C(=O)N[C@@H](CCCNC(=N)N)C(=O)N[C@@H](Cc1ccc(O)cc1)C(=O)N[C@@H](CCCNC(=N)N)C(=O)N[C@@H](CCCCN)C(=O)N[C@@H](CCC(N)=O)C(=O)N[C@@H](CCSC)C(=O)N[C@@H](C)C(=O)N[C@H](C(=O)N[C@@H](CCCCN)C(=O)N[C@@H](CCCCN)C(=O)N[C@@H](Cc1ccc(O)cc1)C(=O)N[C@@H](CC(C)C)C(=O)N[C@@H](C)C(=O)N[C@@H](C)C(=O)N[C@H](C(=O)N[C@@H](CC(C)C)C(N)=O)C(C)C)C(C)C)[C@@H](C)O [Peptide 3],76.5,60.7,higher stability than peptide 1,–,–,–
–,CC[C@H](C)[C@H](NC(=O)CNC(=O)[C@H](Cc1nnn[nH]1)NC(=O)[C@H](CO)NC(=O)[C@H](Cc1c[nH]cn1)NS(C)(=O)=O)C(=O)N[C@@H](Cc1ccccc1)C(=O)N[C@H](C(=O)N[C@@H](Cc1nnn[nH]1)C(=O)N[C@@H](C)C(=O)N[C@@H](Cc1ccc(O)cc1)C(=O)N[C@@H](CO)C(=O)N[C@@H](CCCNC(=N)N)C(=O)N[C@@H](Cc1ccc(O)cc1)C(=O)N[C@@H](CCCNC(=N)N)C(=O)N[C@@H](CCCCN)C(=O)N[C@@H](CCC(N)=O)C(=O)N[C@@H](CC(C)C)C(=O)N[C@@H](C)C(=O)N[C@H](C(=O)N[C@@H](CCCCN)C(=O)N[C@@H](CCCCN)C(=O)N[C@@H](Cc1ccc(O)cc1)C(=O)N[C@@H](CC(C)C)C(=O)N[C@@H](C)C(=O)N[C@@H](C)C(=O)N[C@H](C(=O)N[C@@H](CC(C)C)C(N)=O)C(C)C)C(C)C)[C@@H](C)O [Peptide 29] (Ms-HS[Ala(1H-tetrazol-5-yl)]GIFT[Ala(1H-tetrazol-5-yl)]AYSRYRKQLAVKKYLAAVL-NH2),–,–,–,–,–,91.9
drastically increased stability,CCCC[C@H](NC(=O)[C@H](CCC(N)=O)NC(=O)[C@H](CCCCN)NC(=O)[C@H](CCCNC(=N)N)NC(=O)[C@H](Cc1ccc(O)cc1)NC(=O)[C@H](CCCNC(=N)N)NC(=O)[C@H](CO)NC(=O)[C@H](Cc1ccc(O)cc1)NC(=O)[C@H](CO)NC(=O)[C@H](Cc1nnn[nH]1)NC(=O)[C@@H](NC(=O)[C@H](Cc1ccccc1)NC(=O)[C@@H](NC(=O)CNC(=O)[C@H](Cc1nnn[nH]1)NC(=O)[C@H](CO)NC(=O)[C@@H](N)Cc1c[nH]cn1)[C@@H](C)CC)[C@@H](C)O)C(=O)N[C@@H](C)C(=O)N[C@H](C(=O)N[C@@H](CCCCN)C(=O)N[C@@H](CCCCN)C(=O)N[C@@H](Cc1ccc(O)cc1)C(=O)N[C@@H](CC(C)C)C(=O)N[C@@H](C)C(=O)N[C@@H](C)C(=O)N[C@H](C(=O)N[C@@H](CC(C)C)C(N)=O)C(C)C)C(C)C [Peptide 6] (H-HS[Ala(1H-tetrazol-5-yl)]GIFT[Ala(1H-tetrazol-5-yl)]SYSRYRKQ[Nle]AVKKYLAAVL-NH2),–,–,–,91.3,82.4,–
–,CC[C@H](C)[C@H](NC(=O)CNC(=O)[C@H](Cc1nnn[nH]1)NC(=O)[C@H](CO)NC(=O)[C@H](Cc1c[nH]cn1)NS(C)(=O)=O)C(=O)N[C@@H](Cc1ccccc1)C(=O)N[C@H](C(=O)N[C@@H](Cc1nnn[nH]1)C(=O)N[C@@H](CO)C(=O)N[C@@H](Cc1ccc(O)cc1)C(=O)N[C@@H](CO)C(=O)N[C@@H](CCCNC(=N)N)C(=O)N[C@@H](Cc1ccc(O)cc1)C(=O)N[C@@H](CCCNC(=N)N)C(=O)N[C@@H](CCCCN)C(=O)N[C@@H](CCC(N)=O)C(=O)N[C@@H](CC(C)C)C(=O)N[C@@H](C)C(=O)N[C@H](C(=O)N[C@@H](CCCCN)C(=O)N[C@@H](CCCCN)C(=O)N[C@@H](Cc1ccc(O)cc1)C(=O)N[C@@H](CC(C)C)C(=O)N[C@@H](C)C(=O)N[C@@H](C)C(=O)N[C@H](C(=O)N[C@@H](CC(C)C)C(N)=O)C(C)C)C(C)C)[C@@H](C)O [Peptide 12] (Ms-HS[Ala(1H-tetrazol-5-yl)]GIFT[Ala(1H-tetrazol-5-yl)]SYSRYRKQLAVKKYLAAVL-NH2),–,–,–,97.0,93.6,–
